Test results: patent US20120041009A1, “PYRIMIDINE COMPOUND AND ITS USE IN PEST CONTROL” (SUMITOMO CHEMICAL COMPANY, LIMITED, priority 2009, published 2012)

Test system: Tetranychus urticae
Assay: Test Example 2: spray test against Tetranychus urticae on brush bean (Phaseolus vulgaris)
Type: in vivo
Settings: comparative compound, same conditions as in Test Example 2 (500 ppm); day not given
Method: The formulation of each of the present compounds (1), (3), (5), (7) to (11), (13), (14), (18), (20), (22), (24), (26), (27), (29), (30) and (33) to (35) obtained in Formulation Example 1 was diluted with water so as to adjust the concentration of the active ingredient to 500 ppm to prepare a test spray solution.
About sixty female imagines of Tetranychus urticae were released on brush bean (Phaseolus vulgaris) in the primary leaf stage, which had been potted in a polyethylene cup for 7 days after the seeding. One day after release of female imagines of Tetranychus urticae, 30 ml (per cup) of the test spray solution was sprayed over the brush bean seedling.
On the 8th and 13th day after spraying, the numbers of survival Tetranychus urticae on the leaf of the brush bean plant were examined, and the control rate was calculated by the following equation.
Control rate=100×{1−(number of survival Tetranychus urticae in treated section)/(number of survival Tetranychus urticae in non-treated section)}

SMILES: O=c1[nH]c(-c2cncnc2C(F)(F)F)no1 [comparative compound (C)]
- control value: less than 30%
